In paper PMC7156458, “Synthetic biology based construction of biological activity-related library of fungal decalin-containing diterpenoid pyrones” (Nature Communications, 2020):
Where two headings read alike, the source gives them in different places.

Key:
Type in all cases: cell-based
[1] = cytotoxicity in Drosophila DL1 cells; details: Drosophila, DL1 cells (embryonic macrophage-derived), DL1 cells
Experimental: (§1) We screened the DDPs on the Drosophila assay system for cytotoxicity, inhibitory activity of innate immune signalling and insecticidal activity. The cytotoxicity of the DDPs was evaluated using two cell lines, embryonic macrophage-derived DL1 cells[58]–[60] and larval blood cell-derived l(2)mbn cells, and their IC50 values are listed in Supplementary Table 23.

[2] = system: DL1 cells; test: cytotoxicity in Drosophila DL1 cells; details: for IC50: Drosophila melanogaster
Experimental: as §1

[3] = system: l(2)mbn cells; test: cytotoxicity in Drosophila l(2)mbn cells; details: for Luminescence Raw2: replicate 2; for Luminescence Raw1: replicate 1; for IC50: Drosophila melanogaster, cytotoxicity
Experimental: as §1

[4] = cytotoxicity in Drosophila l(2)mbn cells; details: Drosophila, l(2)mbn cells (larval blood cell-derived)
Experimental: as §1

[5] = replicate 1, relative to DMSO 1%, read-out: % viability, viability 1
[6] = replicate 2, relative to DMSO 1%, read-out: % viability, viability 2
[7] = DL1 cells, 0.04 µM, replicate 1
[8] = DL1 cells, 0.04 µM, replicate 2
[9] = DL1 cells, cytotoxicity, average of two replicates, read-out: IC50 Average
[10] = DL1 cells, cytotoxicity, replicate 1, read-out: IC50 (1)
[11] = DL1 cells, cytotoxicity, replicate 2, read-out: IC50 (2)

C=C1CC[C@@H]2[C@](C)(CC[C@H]3O[C@H](C=C(C)C)C[C@@]23C)[C@@H]1Cc1c(OC)oc(CO)c(C(=O)OC)c1=O [Compound 21]
viability at 0.04 µM [1, 5]: 5.78%
viability at 0.04 µM [1, 6]: 8.79%
viability at 0.2 µM [1, 5]: 4.01%
viability at 0.2 µM [1, 6]: 4.17%
viability at 1 µM [1, 5]: 3.52%
viability at 1 µM [1, 6]: 2.4%
viability at 4 µM [1, 5]: 3.47%
viability at 4 µM [1, 6]: 3.41%
viability at 10 µM [1, 5]: 3.5%
viability at 10 µM [1, 6]: 3.92%
viability at 20 µM [1, 5]: 2.31%
viability at 20 µM [1, 6]: 3.01%
Luminescence Raw1 [2, 7]: 237970
Luminescence Raw2 [2, 8]: 362006
Luminescence Raw1 ([2]; DL1 cells, 0.2 µM, replicate 1): 165136
Luminescence Raw2 ([2]; DL1 cells, 0.2 µM, replicate 2): 171986
Luminescence Raw1 ([2]; DL1 cells, 1 µM, replicate 1): 144944
Luminescence Raw2 ([2]; DL1 cells, 1 µM, replicate 2): 98793
Luminescence Raw1 ([2]; DL1 cells, 4 µM, replicate 1): 143141
Luminescence Raw2 ([2]; DL1 cells, 4 µM, replicate 2): 140618
Luminescence Raw1 ([2]; DL1 cells, 10 µM, replicate 1): 144223
Luminescence Raw2 ([2]; DL1 cells, 10 µM, replicate 2): 161530
Luminescence Raw1 ([2]; DL1 cells, 20 µM, replicate 1): 95187
Luminescence Raw2 ([2]; DL1 cells, 20 µM, replicate 2): 124032
IC50 [2, 9]: < 40 nM
IC50 [2, 10]: < 40 nM
IC50 [2, 11]: < 40 nM
IC50 ([2]; DL-1 cell line, cell growth, read-out: IC50): < 40 nM
Luminescence Raw2 ([3]; 0.2 µM): 2750409
Luminescence Raw1 ([3]; 0.4 µM): 2719029
Luminescence Raw2 ([3]; 0.4 µM): 2813892
Luminescence Raw1 ([3]; 0.8 µM): 2929318
Luminescence Raw2 ([3]; 0.8 µM): 2922825
Luminescence Raw1 ([3]; 1 µM): 2523535
IC50 ([3]; average of two replicates, read-out: IC50 Average): 2660 nM
IC50 ([3]; average±SEM, read-out: IC50): 2660 ± 220 nM
IC50 ([3]; replicate 1, read-out: IC50 (1)): 2440 nM
IC50 ([3]; replicate 2, read-out: IC50 (2)): 2880 nM

C=C1CCC2C(C)(CC(=O)C=C(C)C)C(O)CCC2(C)C1Cc1c(OC)oc(C)c(C)c1=O (stereo not shown) [Compound 25]
viability at 0.04 µM [1, 5]: 135%
viability at 0.04 µM [1, 6]: 136%
viability at 0.2 µM [1, 5]: 130%
viability at 0.2 µM [1, 6]: 129%
viability at 1 µM [1, 5]: 128%
viability at 1 µM [1, 6]: 133%
viability at 4 µM [1, 5]: 130%
viability at 4 µM [1, 6]: 124%
viability at 10 µM [1, 5]: 110%
viability at 10 µM [1, 6]: 127%
viability at 20 µM [1, 5]: 19.2%
viability at 20 µM [1, 6]: 27.2%
Luminescence Raw1 [2, 7]: 2772839
Luminescence Raw2 [2, 8]: 2800252
Luminescence Raw1 ([2]; DL1 cells, 0.2 µM, replicate 1): 2673287
Luminescence Raw2 ([2]; DL1 cells, 0.2 µM, replicate 2): 2657777
Luminescence Raw1 ([2]; DL1 cells, 1 µM, replicate 1): 2635775
Luminescence Raw2 ([2]; DL1 cells, 1 µM, replicate 2): 2736769
Luminescence Raw1 ([2]; DL1 cells, 4 µM, replicate 1): 2684468
Luminescence Raw2 ([2]; DL1 cells, 4 µM, replicate 2): 2551374
Luminescence Raw1 ([2]; DL1 cells, 10 µM, replicate 1): 2257781
Luminescence Raw2 ([2]; DL1 cells, 10 µM, replicate 2): 2619904
Luminescence Raw1 ([2]; DL1 cells, 20 µM, replicate 1): 396244
Luminescence Raw2 ([2]; DL1 cells, 20 µM, replicate 2): 560668
IC50 [2, 9]: 17200 nM
IC50 ([2]; DL1 cells, cytotoxicity, average±SEM, read-out: IC50): 17200 ± 2060 nM
IC50 [2, 10]: 15100 nM
IC50 [2, 11]: 19200 nM
viability at 0.04 µM [4, 5]: 124%
viability at 0.04 µM [4, 6]: 126%
viability at 0.2 µM [4, 5]: 130%
viability at 0.2 µM [4, 6]: 134%
viability at 1 µM [4, 5]: 121%
viability at 1 µM [4, 6]: 140%
viability at 4 µM [4, 5]: 137%
viability at 4 µM [4, 6]: 148%
viability at 10 µM [4, 5]: 125%
viability at 10 µM [4, 6]: 136%
viability at 20 µM [4, 5]: 87.1%
viability at 20 µM [4, 6]: 97.2%
Luminescence Raw1 ([3]; 0.04 µM): 3193720
Luminescence Raw2 ([3]; 0.04 µM): 3243139
Luminescence Raw1 ([3]; 0.2 µM): 3343782
Luminescence Raw2 ([3]; 0.2 µM): 3450197
Luminescence Raw1 ([3]; 1 µM): 3097409
Luminescence Raw2 ([3]; 1 µM): 3603150
Luminescence Raw1 ([3]; 4 µM): 3528838
Luminescence Raw2 ([3]; 4 µM): 3786770
Luminescence Raw1 ([3]; 10 µM): 3209953
Luminescence Raw2 ([3]; 10 µM): 3480138
Luminescence Raw1 ([3]; 20 µM): 2234271
Luminescence Raw2 ([3]; 20 µM): 2495041
IC50 ([3]; average±SEM, read-out: IC50): > 20000 nM
